Results from patent EP2878677A1, “Activators of protein phosphatase 5” (Deutsches Zentrum für Neurodegenerative Erkrankungen e.V. …, priority 2013, dated 2015).

Experiments:
[1] = system: human tau-P301L-transfected mice brains; test: human tau-P301L-transfected mice treated via mini-osmotic pumps, immunohistochemistry of the hippocampus; format: in vivo, C57BL/6 mice
Description: All protocols for animal experiments described in this study were performed according to the German laws for animal experimentation (Tierschutzgesetz) from 1998. The study was approved by the authorities of the State of Saxony-Anhalt (Landesverwaltungsamt) and performed according to institutional guidelines. Animals were maintained under constant environmental conditions with ambient temperature of 20 ± 2 °C and relative humidity of 50%. They were housed with a 12 hour light-dark cycle and given food and water ad libitum. Adult wild-type C57BL/6 mice (10 weeks old) obtained from Charles River Laboratories (Sulzfeld, Germany) were used for all studies. 4% halothane in a mixture of nitrous oxide/oxygen (ratio 70:30) was used for the induction of anesthesia and 1 to 1.5% halothane for the maintenance of anesthesia. Halothane was applied via a nose cone. Throughout all surgical procedures, the animal's body temperature was kept at 37°C using a thermostatically controlled heating blanket. Intracerebral injection of viral particles into the hippocampus of the right brain hemisphere of anesthetized mice was performed stereotactically at coordinates 2.6 mm posterior to bregma, lateral 1.0 mm and ventral 2.0 mm. 2 µl of high titer viral suspension were injected with a fixed syringe (Hamilton Company, Reno, NV, USA). After injection at a rate of 0.2 µl/min, the cannula was left in place for further 30 sec before slow withdrawal. After surgery, the wound was sutured.
Mini-osmotic pumps (Model 2006, Alzet, Palo Alto, CA, USA) were implanted intraperitoneal (ip) through a midline incision immediately after P301L transfection. During implantation, animals remained under halothane anesthesia (details above). The pumps (internal volume: 245.6 µl) were loaded with one of the following substances: P5SA-2, P5SA-3, P5SA-4, P5SA-5 or corresponding vehicle solution (DMSO/polyethylene glycol 400 (50:50 w/w) without drug. P5SA (final concentration 1 mg/kg/day) or vehicle infusion (ip) started immediately after transplantation with a continuous flow rate of 0.15 µl/h and was maintained for 6 weeks.
6 weeks after P301L transfection, mice were anesthetized by ip injection of 4% chloral hydrate in PBS, transcardially perfused with ice-cold PBS and fixed with 4% paraformaldehyde in 0.1 M PBS. Immediately after fixation, animals were decapitated. The brains were removed and post-fixed in the same fixative overnight. Fixed brains were placed in a mouse brain matrix (Activational Systems Inc., Warren, USA) and transected into defined coronal brain slices (thickness 1 mm) along the anterior-posterior axis. After incubation in 30% sucrose containing PBS for cryoprotection, 20 µm-thick frontal sections, comprising the hippocampal formation, were cut using a cryostat (Microm International GmbH, Walldorf, Germany). For immunohistochemical staining, sections were washed in 0.1 M PBS. Free-floating sections were permeabilized with 0.2% Triton X-100 in PBS containing 10% normal horse serum for 30 min. After washing with PBS, unspecific antibody binding was blocked by 10% normal horse serum for 30 min, followed by a further wash in 0.1 M PBS. Then, sections were incubated with primary antibodies. For immunofluorescence staining, primary antibodies directed against total tau (human plus endogenous mice tau, K9JA) and MAP2 (microtubule-associated protein 2), respectively, were applied simultaneously. Alternatively, the primary antibodies AT8 (human phospho-tau, AT8 (Ser202/Thr205) phosphorylation site) and the human tau-specific primary antibody tau-13 were used individually. After overnight incubation at 4°C, sections were rinsed with 0.1 M PBS. Sections exposed to the primary antibody combination K9JA/MAP2 were incubated with the complementary secondary antibodies goat anti-rabbit IgG Alexa Fluor 488 and goat anti-mouse IgG Alexa Fluor 594. AT8 and tau-13 were visualized with goat anti-mouse IgG Alexa Fluor 594. […]

Hsc70/HSP-1 = molecular target: T1, Hsc70/HSP-1 (Caenorhabditis elegans, UniProt P09446); test: coupled regenerative ATPase assay; format: biochemical, C. elegans; conditions: concentrations well above the KD; also with BAG-1 and DNJ-13; 30 °C
T1 construct: made in house; host or cells: bacteria
T1 sequence (P09446 whole entry): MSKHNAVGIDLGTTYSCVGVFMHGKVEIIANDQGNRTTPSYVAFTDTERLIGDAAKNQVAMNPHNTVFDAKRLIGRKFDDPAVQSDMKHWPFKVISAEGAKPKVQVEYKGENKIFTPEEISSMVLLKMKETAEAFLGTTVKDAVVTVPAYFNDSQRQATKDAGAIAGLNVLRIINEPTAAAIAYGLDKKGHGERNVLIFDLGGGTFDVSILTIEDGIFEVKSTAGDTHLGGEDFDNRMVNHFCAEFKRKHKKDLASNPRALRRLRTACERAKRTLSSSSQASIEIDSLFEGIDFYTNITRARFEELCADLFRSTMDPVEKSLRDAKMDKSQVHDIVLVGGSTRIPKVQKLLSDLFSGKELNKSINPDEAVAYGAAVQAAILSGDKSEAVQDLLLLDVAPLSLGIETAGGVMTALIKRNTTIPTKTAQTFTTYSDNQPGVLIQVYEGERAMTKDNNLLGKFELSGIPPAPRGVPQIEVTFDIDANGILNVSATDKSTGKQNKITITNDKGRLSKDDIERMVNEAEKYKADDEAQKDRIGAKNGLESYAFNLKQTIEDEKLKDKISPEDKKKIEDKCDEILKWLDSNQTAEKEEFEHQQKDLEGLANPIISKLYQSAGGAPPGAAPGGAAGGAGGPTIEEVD
Description: (§1) ATPase activity can be measured as described in Gaiser et al., 2009 with an ATPase assay that is carried out as a regenerative assay, wherein ADP produced during the ATPase reaction is recycled to ATP with the help of lactate dehydrogenase, NADH, phosphoenolpyruvate and pyruvate kinase. This changes the absorbance at 340 nm, when NADH is oxidized to NAD^+, giving a sensitive signal for the determination of activity. The change in absorbance at 340 nm that occurs during oxidizing of NADH to NAD^+ is measured by spectroscopic measures. Preferably, said in vitro ATPase assay is carried out at 30 °C. Preferably, said in vitro ATPase assay is carried out in the presence of 3 µM or the chaperone protein. Preferably the concentration of each of the cochaperones present is 5 µM. Preferably, the chaperones and cochaperones used are bacterially expressed proteins.
(§2) The activity of the ATPases Hsc70/HSP-1 and Hsp90/DAF-21 were assessed in a coupled regenerative ATPase assay as described before (Gaiser et al., 2009). Reactions were measured in a Varian Cary 100 spectrophotometer (Agilent Technologies, Boeblingen, Germany) at 30 °C and the depletion of NADH was followed at 340 nm. Chaperone concentration was 3 µM and cochaperones were added, when indicated, at a concentration of 5 µM.

Hsp90/DAF-21 = molecular target: T2, Hsp90/DAF-21 (Caenorhabditis elegans, UniProt Q18688); test: coupled regenerative ATPase assay; format: biochemical, C. elegans; conditions: concentrations well above the KD; also with AHA-1; 30 °C
T2 construct: made in house
Description: as §1, §2

[2] = 1 mg/kg/day, continuous ip infusion for 6 weeks

SMILES | phosphorylation of human tau-P301L at its AT8 epitope (Ser202/Thr205) [1, 2] | tau-P301L-dependent pattern of neuronal degeneration in the hippocampal formation [1, 2] | ATPase activity of Hsc70/HSP-1 (Hsc70/HSP-1) | ATPase activity of Hsp90/DAF-21 (Hsp90/DAF-21) | numbers of AT8-positive perikarya of CA3 pyramidal neurons per hippocampal slice ([1]; 1 mg/kg/day ip for 6 weeks, mean ± SEM, vehicle 7.0 ± 2.0, P< 0.0001) | tau-P301L-dependent localization of total tau signals in the perikarya of CA1 and CA3 pyramidal neurons [1, 2]
CN1CCc2c(sc(-n3cccc3)c2CNC(=O)NC23CC4CC(CC(C4)C2)C3)C1 [P5SA-3] | diminished | not observed | – | – | – | –
COc1ccc(-c2nc(Cc3ccc(Cl)cc3)no2)cc1OC [P5SA-2] | diminished | not observed | no additional effect | no effect | – | –
O=c1cc2nc(-c3ccc(F)cc3)nc(SCc3ccc(Br)cc3)n2[nH]1 [P5SA-4] | diminished | not observed | no additional effect | no effect | – | –
FC(F)(F)c1c2c(nc3c(-c4ccc(Cl)cc4)cnn13)CCC2 [P5SA-1] | – | – | no additional effect | no effect | – | –
CNC(=O)c1c(NC(=O)COCC(=O)Nc2sc3c(c2C(=O)NC)CCC3)sc2c1CCC2 [P5SA-5] | remarkably reduced | decreased | no additional effect | no effect | 2.2 ± 1.4 | remained unaffected
